Source: patent US20240239805A1, “AZA-YANG CYCLIZATION-BUCHNER AROMATIC RING EXPANSION: COLLECTIVE SYNTHESIS OF CYCLOHEPTATRIENE-CONTAINING AZETIDINE LACTONES” (University of Kansas, priority 2022, published 2024)

System: U-2 OS (ATCC, HTB-96) cells
Experiment: Cell Painting: changes in cell morphology induced by synthesized compounds
Format: cell-based
Settings: U-2 OS cells, 24-hour treatment; for Clustering of fingerprints (similarity of fingerprints) with known bioactives: Cell Painting, cosine similarity, FIG. 9; for Determination of bioactives: reproducibility of fingerprints and magnitude of the activity: Cell Painting feature vectors vs DMSO, 3 repeats, FIG. 8
Procedure: U-2 OS (ATCC, HTB-96) cells were cultured in T-75 flasks (Greiner, 658170) under McCoy's 5a medium (HIMedia, AT057), supplemented with 10% fetal bovine serum (FBS) and 1% Penicillin/Streptomycin solution, and incubated at 37° C. in a 5% CO2 atmosphere. Upon reaching 80% confluence, cells were washed, trypsinized (0.25% solution with EDTA, VWR, M143), and removed. Flasks were reseeded with one-fifth of the cell count for each passage. All cell plates reported in this paper were composed of U-2 OS from incubation lengths of five or fewer passages. 384 Black-welled plates with optically clear bottoms (Corning, 6569) were seeded with U-2 OS at a density of 1,000 cells per well and cells were allowed to incubate for 24 h to ensure adherence.
Three compound plates (Thermo Scientific, AB-1056) were constructed using an initial aliquot of a 50 mM compound solution solubilized in DMSO. Each compound aliquot was then twofold serially diluted in DMSO to yield eight concentrations ranging from 50 mM to 390 μM. This process was repeated so that compound plate 1 contained each of the 16 test (cycloheptatriene) compounds and one azetidinol, compound plate 2 contained 19 esters, and compound plate 3 contained the diazo compounds. Vehicle treatments were included in the plate design as DMSO-containing wells (around 200) with no added compound. Staurosporine diluted to 500 μM in DMSO was included on the plate as a positive control to test the transfer of compounds from pin transfer.
After a 24 h incubation period, untreated cell-containing plates and the compound plate were each fitted into a Library Copier, and a sterile Multi-Blot Replicator (V and P Scientific) was used to transfer a 100 nL volume from each well of the 384 well compound plate into the culture media (50 μL) of a corresponding well on the 384 well cell plate. These cell plates were reintroduced to a 37° C., 5% CO2 atmosphere for the duration of the 24-hour treatment period.
1 L of Hank's Buffered Saline Solution (HBSS) (1× from 10×) was prepared using 100 mL HBSS (10×) and diluted with 900 mL deionized water. The pH of the solution was adjusted to 7.2 with aqueous NaOH and filtered through a 0.2-micron filter. A 1% w/v solution of BSA (VWR, 0332) was prepared in 1×HBSS using 150 mg BSA, dissolved in 15 mL HBSS. The solution was filtered through a 0.2-micron filter. Live-cell MitoTracker (Thermo Fisher, M22426) staining solution was prepared using 6.5 μL of MitoTracker staining solution from a stock of 1 mM MitoTracker and dissolved in 13 mL of pre-warmed cell culture medium (RPMI) for a final concentration of 500 nM.
Staining dyes: a. […]

Compound | Clustering of fingerprints (similarity of fingerprints) with known bioactives | Determination of bioactives: reproducibility of fingerprints and magnitude of the activity
CC[C@]1(O)C[C@H]2CN(CCc3c([nH]c4ccccc34)[C@@](C(=O)OC)(c3cc4c(cc3OC)N(C=O)[C@H]3[C@@](O)(C(=O)OC)[C@H](OC(C)=O)[C@]5(CC)C=CCN6CC[C@]43[C@@H]65)C2)C1 [vincristine] | cluster together | 
O=C1O[C@]2(CN3CCCC[C@H]32)C2=CC=CC=C[C@@]12c1ccsc1 [Compound 1-1-4] |  | showed reproducible fingerprints and magnitude of the activity
CC(=O)O[C@H]1C(=O)[C@@]2(C)[C@H]([C@H](OC(=O)c3ccccc3)[C@]3(O)C[C@H](OC(=O)[C@H](O)[C@@H](NC(=O)c4ccccc4)c4ccccc4)C(C)=C1C3(C)C)[C@]1(OC(C)=O)CO[C@@H]1C[C@@H]2O [taxol] | cluster together | 
CC(C)(C)OC(=O)n1cc(C23C=CC=CC=C2[C@@]2(CN4CCCC[C@H]42)OC3=O)c2ccccc21 (stereo partly shown) [Compound 1-1-3] |  | showed reproducible fingerprints and magnitude of the activity
